Reference: ChEMBL document CHEMBL5505979, “Novel aminothiazoximone-corbelled ethoxycarbonylpyrimidones with antibiofilm activity to conquer Gram-negative bacteria through potential multitargeting effects” (Eur J Med Chem, 2024)
Converted amounts (≈) assume the structure as drawn.

Experiments:
Type in all cases: functional
[1] = tested on: Candida parapsilosis; experiment: Anti-fungal activity against Candida parapsilosis assessed as inhibition of fungal growth; details: Lodderomyces parapsilosis; read-out: MIC
[2] = tested on: Staphylococcus aureus; experiment: Anti-bacterial activity against Staphylococcus aureus CMCC (B) 26003 assessed as inhibition of bacterial growth
[3] = tested on: Staphylococcus aureus; experiment: Anti-bacterial activity against Staphylococcus aureus ATCC 25923 assessed as inhibition of bacterial growth; details: Staphylococcus aureus, ATCC 25923; read-out: MIC
[4] = tested on: Staphylococcus aureus; experiment: Anti-bacterial activity against methicillin-resistant Staphylococcus aureus N315 assessed as inhibition of bacterial growth; details: Staphylococcus aureus, N315; read-out: MIC
[5] = tested on: Candida albicans; experiment: Anti-fungal activity against Candida albicans 90023 assessed as inhibition of fungal growth
[6] = tested on: Klebsiella pneumoniae; experiment: Anti-bacterial activity against Klebsiella pneumoniae KPN325 assessed as inhibition of bacterial growth; details: Klebsiella pneumoniae, KPN325; read-out: MIC
[7] = tested on: Staphylococcus aureus; experiment: Anti-bacterial activity against Staphylococcus aureus ATCC 12600 assessed as inhibition of bacterial growth; details: Staphylococcus aureus, ATCC 12600; read-out: MIC
[8] = tested on: Pseudomonas aeruginosa; experiment: Anti-bacterial activity against Pseudomonas aeruginosa ATCC 15442 assessed as inhibition of bacterial growth; details: Pseudomonas aeruginosa, ATCC 15442; read-out: MIC
[9] = tested on: Staphylococcus aureus; experiment: Anti-bacterial activity against Staphylococcus aureus CMCC (B) 26001 assessed as inhibition of bacterial growth
[10] = tested on: Candida albicans; experiment: Anti-fungal activity against Candida albicans assessed as inhibition of fungal growth; details: Candida albicans; read-out: MIC
[11] = tested on: Pseudomonas aeruginosa; experiment: Anti-bacterial activity against Pseudomonas aeruginosa ATCC 27853 assessed as inhibition of bacterial growth; details: Pseudomonas aeruginosa, ATCC 27853; read-out: MIC
[12] = tested on: Escherichia coli; experiment: Anti-bacterial activity against Escherichia coli ATCC 25922 assessed as inhibition of bacterial growth
[13] = tested on: Pseudomonas aeruginosa; experiment: Anti-bacterial activity against Pseudomonas aeruginosa ST235 assessed as inhibition of bacterial growth; details: Pseudomonas aeruginosa, ST235; read-out: MIC
[14] = tested on: Staphylococcus aureus; experiment: Anti-bacterial activity against Staphylococcus aureus ATCC 1708 assessed as inhibition of bacterial growth; details: Staphylococcus aureus, ATCC 1708; read-out: MIC
[15] = tested on: Enterococcus faecalis; experiment: Anti-bacterial activity against Enterococcus faecalis V583 assessed as inhibition of bacterial growth
[16] = tested on: Escherichia coli; experiment: Anti-bacterial activity against Escherichia coli JM109 assessed as inhibition of bacterial growth
[17] = tested on: Staphylococcus aureus; experiment: Anti-bacterial activity against methicillin-resistant Staphylococcus aureus ATCC 43300 assessed as inhibition of bacterial growth; details: Staphylococcus aureus, ATCC 43300; read-out: MIC
[18] = tested on: Candida tropicalis; experiment: Anti-fungal activity against Candida tropicalis assessed as inhibition of fungal growth; details: Candida tropicalis; read-out: MIC
[19] = tested on: Staphylococcus aureus; experiment: Anti-bacterial activity against Staphylococcus aureus ATCC 6538 assessed as inhibition of bacterial growth
[20] = tested on: Acinetobacter baumannii; experiment: Anti-bacterial activity against Acinetobacter baumannii R674 assessed as inhibition of bacterial growth
[21] = tested on: Pseudomonas aeruginosa; experiment: Anti-bacterial activity against Pseudomonas aeruginosa CMCC (B) 10104 assessed as inhibition of bacterial growth; details: Pseudomonas aeruginosa, CMCC (B) 10104; read-out: MIC
[22] = tested on: Staphylococcus aureus; experiment: Anti-bacterial activity against Staphylococcus aureus ATCC 29213 assessed as inhibition of bacterial growth; details: Staphylococcus aureus, ATCC 29213; read-out: MIC
[23] = tested on: Pseudomonas aeruginosa; experiment: Anti-bacterial activity against Pseudomonas aeruginosa ATCC 9027 assessed as inhibition of bacterial growth

| SMILES | MIC [1] [µM] | MIC [2] [µM] | MIC [3] [µM] | MIC [4] [µM] | MIC [5] [µM] | MIC [6] [µM] | MIC [7] [µM] | MIC [8] [µM] | MIC [9] [µM] | MIC [10] [µM] | MIC [11] [µM] | MIC [12] [µM] | MIC [13] [µM] | MIC [14] [µM] | MIC [15] [µM] | MIC [16] [µM] | MIC [17] [µM] | MIC [18] [µM] | MIC [19] [µM] | MIC [20] [µM] | also measured |
| --- | --- | --- | --- | --- | --- | --- | --- | --- | --- | --- | --- | --- | --- | --- | --- | --- | --- | --- | --- | --- | --- |
| CCOC(=O)C1=C(CN2CCNCC2)NC(=O)NC1c1ccc2c(c1)c1ccccc1n2CC (stereo not drawn) | 470 (≈ 217 µg/mL) | 222 (≈ 102 µg/mL) | 222 (≈ 102 µg/mL) | 222 (≈ 102 µg/mL) | 59 (≈ 27.2 µg/mL) | 222 (≈ 102 µg/mL) | 222 (≈ 102 µg/mL) | 56 (≈ 25.8 µg/mL) | 111 (≈ 51.2 µg/mL) | 470 (≈ 217 µg/mL) | 222 (≈ 102 µg/mL) | 222 (≈ 102 µg/mL) | 222 (≈ 102 µg/mL) | 222 (≈ 102 µg/mL) | 28 (≈ 12.9 µg/mL) | 222 (≈ 102 µg/mL) | 111 (≈ 51.2 µg/mL) | 470 (≈ 217 µg/mL) | 111 (≈ 51.2 µg/mL) | 7 (≈ 3.23 µg/mL) | MIC [21]: 444 µM (≈ 205 µg/mL); MIC [22]: 14 µM (≈ 6.46 µg/mL); MIC [23]: 444 µM (≈ 205 µg/mL) |
| CCCCc1nc(Cl)c(C2NC(=O)NC(CN3CCN(CC(=O)c4ccc(Cl)cc4)CC3)=C2C(=O)OCC)[nH]1 (stereo not drawn) | 444 (≈ 256 µg/mL) | 56 (≈ 32.3 µg/mL) | 222 (≈ 128 µg/mL) | 222 (≈ 128 µg/mL) | 14 (≈ 8.09 µg/mL) | 222 (≈ 128 µg/mL) | 56 (≈ 32.3 µg/mL) | 111 (≈ 64.1 µg/mL) | 28 (≈ 16.2 µg/mL) | 444 (≈ 256 µg/mL) | 111 (≈ 64.1 µg/mL) | 111 (≈ 64.1 µg/mL) | 111 (≈ 64.1 µg/mL) | 444 (≈ 256 µg/mL) | 222 (≈ 128 µg/mL) | 222 (≈ 128 µg/mL) | 56 (≈ 32.3 µg/mL) | 444 (≈ 256 µg/mL) | 444 (≈ 256 µg/mL) | 111 (≈ 64.1 µg/mL) | MIC [21]: 56 µM (≈ 32.3 µg/mL); MIC [22]: 56 µM (≈ 32.3 µg/mL); MIC [23]: 28 µM (≈ 16.2 µg/mL) |
| CCOC(=O)C1=C(CN2CCN(C(=O)/C(=N/OC)c3csc(N)n3)CC2)NC(=O)NC1c1ccc(OC)cc1 (stereo not drawn) | 470 (≈ 262 µg/mL) | 115 (≈ 64.1 µg/mL) | 230 (≈ 128 µg/mL) | 230 (≈ 128 µg/mL) | 7 (≈ 3.9 µg/mL) | 230 (≈ 128 µg/mL) | 230 (≈ 128 µg/mL) | 230 (≈ 128 µg/mL) | 58 (≈ 32.3 µg/mL) | 470 (≈ 262 µg/mL) | 230 (≈ 128 µg/mL) | 230 (≈ 128 µg/mL) | 230 (≈ 128 µg/mL) | 115 (≈ 64.1 µg/mL) | 58 (≈ 32.3 µg/mL) | 115 (≈ 64.1 µg/mL) | 115 (≈ 64.1 µg/mL) | 470 (≈ 262 µg/mL) | 115 (≈ 64.1 µg/mL) | 115 (≈ 64.1 µg/mL) | MIC [21]: 230 µM (≈ 128 µg/mL); MIC [22]: 115 µM (≈ 64.1 µg/mL); MIC [23]: 230 µM (≈ 128 µg/mL) |
| OC(Cn1cncn1)(Cn1cncn1)c1ccc(F)cc1F [FLUCONAZOLE] | 13 (≈ 3.98 µg/mL) | – | – | – | 7 (≈ 2.14 µg/mL) | – | – | – | – | 13 (≈ 3.98 µg/mL) | – | – | – | – | – | – | – | 26 (≈ 7.96 µg/mL) | – | – | – |
